Active and inactive are the calls of the source.
Assays:
[1] = molecular target: T1, Methionyl-tRNA synthetase, putative (Trypanosoma brucei brucei, UniProt Q38C91); format: functional, Trypanosoma brucei brucei strain 927/4 GUTat10.1
T1 sequence (Q38C91 whole entry): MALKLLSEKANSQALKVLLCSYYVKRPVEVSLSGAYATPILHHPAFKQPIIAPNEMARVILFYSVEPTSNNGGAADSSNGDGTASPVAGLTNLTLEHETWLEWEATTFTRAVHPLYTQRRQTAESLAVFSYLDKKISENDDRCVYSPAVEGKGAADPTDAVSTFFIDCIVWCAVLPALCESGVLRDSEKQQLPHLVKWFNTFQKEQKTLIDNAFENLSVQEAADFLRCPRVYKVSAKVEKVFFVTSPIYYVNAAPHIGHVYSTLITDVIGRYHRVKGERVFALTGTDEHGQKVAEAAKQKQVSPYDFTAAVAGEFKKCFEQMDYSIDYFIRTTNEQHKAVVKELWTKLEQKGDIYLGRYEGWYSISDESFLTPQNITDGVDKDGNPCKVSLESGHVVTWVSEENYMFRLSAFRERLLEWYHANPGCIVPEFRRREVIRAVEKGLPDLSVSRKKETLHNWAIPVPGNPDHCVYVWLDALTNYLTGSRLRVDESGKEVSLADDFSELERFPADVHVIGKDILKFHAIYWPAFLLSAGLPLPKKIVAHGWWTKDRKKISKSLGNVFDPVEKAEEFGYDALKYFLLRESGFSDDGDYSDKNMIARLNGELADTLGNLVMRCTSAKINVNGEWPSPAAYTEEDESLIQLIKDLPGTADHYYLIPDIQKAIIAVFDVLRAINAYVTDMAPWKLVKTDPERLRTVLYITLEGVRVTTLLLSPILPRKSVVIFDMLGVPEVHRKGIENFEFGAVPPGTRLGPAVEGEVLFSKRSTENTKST

[2] = Counterscreen for inhibitors of Trypanosoma brucei methionyl tRNA synthetase (MetRS): Luminescence-based cell-based high throughput dose response assay to identify compounds that are cytotoxic to Jurkat human T lymphocyte cells.; format: functional
[3] = molecular target: T1, Methionyl-tRNA synthetase, putative; format: functional, Trypanosoma brucei brucei strain 927/4 GUTat10.1; remark: listed apart in the source
H9c2 = assay: cells; format: functional, cell-based; conditions: Rattus norvegicus, H9c2, Myocardium;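 also: confirmatory concentration-response retest of ultra-high-throughput screening hits for modulation of myocardial damage; cell death induced by hydrogen peroxide oxidative stress; compound pretreatment for 60 min then peroxide exposure for 2 h; potency is for protecting the cells against peroxide damage rather than for killing them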
Protein skinhead-1 = molecular target: T2, Protein skinhead-1 (Caenorhabditis elegans, UniProt P34707); format: functional
T2 sequence (P34707 whole entry): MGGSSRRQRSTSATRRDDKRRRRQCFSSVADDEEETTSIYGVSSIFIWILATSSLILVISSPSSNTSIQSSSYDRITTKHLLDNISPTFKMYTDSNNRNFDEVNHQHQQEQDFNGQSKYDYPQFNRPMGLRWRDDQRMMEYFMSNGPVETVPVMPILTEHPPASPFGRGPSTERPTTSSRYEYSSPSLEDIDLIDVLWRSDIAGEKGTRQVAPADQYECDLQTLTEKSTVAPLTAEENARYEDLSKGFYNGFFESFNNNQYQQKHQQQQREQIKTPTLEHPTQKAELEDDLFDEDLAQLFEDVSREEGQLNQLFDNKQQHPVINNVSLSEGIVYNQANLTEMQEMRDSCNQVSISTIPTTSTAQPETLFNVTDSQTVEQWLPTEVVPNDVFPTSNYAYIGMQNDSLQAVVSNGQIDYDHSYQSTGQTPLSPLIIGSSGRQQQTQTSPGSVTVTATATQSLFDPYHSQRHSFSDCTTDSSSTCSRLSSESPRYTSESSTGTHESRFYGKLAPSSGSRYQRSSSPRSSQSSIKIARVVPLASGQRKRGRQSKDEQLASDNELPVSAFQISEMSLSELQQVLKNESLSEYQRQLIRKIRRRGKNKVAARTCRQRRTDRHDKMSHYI

[4] = inhibitors of firefly luciferase expression or activity, dose response, H4 neuroglioma cells, luminescence (AID 1990); format: functional, cell-based
[5] = Luminescence Cell-Based Dose Response HTS to Identify Inhibitors of 5'UTR Stem-Loop Driven Prion Protein mRNA Translation in H4 Neuroglioblastoma Cells. [Related pubchem assays: 1827 (Project Summary), 1813 (Primary HTS)]; format: functional
[6] = inhibitors of SNCA 5'UTR-driven reporter translation, confirmation, H4 neuroglioma cells, luminescence (AID 1988); format: functional, cell-based
[7] = cytotoxicity in HEK-293T cells, dose response, cytotoxicity control for TCR NF-kB inhibitor project, luminescence, T-cell screen hits (AID 489026); format: functional, cell-based;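 also: cells exposed to compound about 14 hours before the viability readout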
[8] = intracellular Trypanosoma cruzi inhibitors in host cells – cell-based, plate reader, cherry-pick samples, set 3, dose response (AID 651818); format: functional;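 also: compounds incubated with infected cells for about four days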
[9] = inhibitors of intracellular T. cruzi replication, confirmation, NIH3T3 host cells, beta-gal luminescence (AID 2044); format: functional, cell-based;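 also: intracellular parasites grown in NIH/3T3 mouse fibroblasts as host cells; luminescent beta-galactosidase reporter signal from transgenic T. cruzi replicating inside host cells; inhibitors lower the luminescence signal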
[10] = cytotoxicity toward NIH3T3 fibroblasts, dose response, counter-screen, cell-based, ATP luminescence, mouse fibroblasts (AID 2010); format: functional;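 also: cells exposed to compound for about 90 hours before reading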
[11] = molecular target: T3, Microphthalmia-associated transcription factor (Homo sapiens, UniProt O75030); assay: TRPM1 promoter luciferase signal decrease, dose response, MITF inhibitor project, cell-based, SK-MEL-5, cherry-picked, set 3 (AID 493073); format: functional
T3 sequence (O75030 whole entry): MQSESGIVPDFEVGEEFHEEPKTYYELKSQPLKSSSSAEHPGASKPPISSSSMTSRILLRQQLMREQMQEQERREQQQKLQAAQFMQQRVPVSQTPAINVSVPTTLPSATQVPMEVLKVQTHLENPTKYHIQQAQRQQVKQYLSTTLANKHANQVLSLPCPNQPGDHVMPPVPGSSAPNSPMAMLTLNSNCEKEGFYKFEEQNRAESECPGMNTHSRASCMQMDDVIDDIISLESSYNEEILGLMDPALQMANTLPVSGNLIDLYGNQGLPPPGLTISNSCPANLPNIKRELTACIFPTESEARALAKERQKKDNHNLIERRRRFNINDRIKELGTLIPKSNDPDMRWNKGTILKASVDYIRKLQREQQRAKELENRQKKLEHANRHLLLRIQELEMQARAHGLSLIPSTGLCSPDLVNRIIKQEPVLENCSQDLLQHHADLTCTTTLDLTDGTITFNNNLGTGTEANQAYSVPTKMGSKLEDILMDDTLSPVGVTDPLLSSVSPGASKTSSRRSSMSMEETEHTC

[12] = CEM21 lymphoblast cell cytotoxicity, dose response, cytotoxicity control for viral fusion inhibitor project, CellTiter-Glo luminescence, cherry-picked (AID 652042); format: functional, cell-based;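 also: potency for signal decrease meaning cytotoxicity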
[13] = ZM109 Env clade C HIV-1 fusion inhibitors, dose response, HeLa effector, CEM target cells, luciferase, cherry-pick (AID 652058); format: functional, cell-based
[14] = inhibitors of clade B AD8 Env fusion, dose response, cell-based, cherry-pick (AID 652062); format: functional;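 also: luciferase signal from cell-cell fusion driven by HIV-1 clade B AD8 Env; potency is for inhibitors of fusion seen as a drop in luminescence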
[15] = Luminescence Cell-Based Dose Retest to Confirm Inhibitors of Cancer Stem Cells. [Related pubchem assays (depositor defined):AID2717, AID2721]; format: functional; conditions: Homo sapiens
[16] = inhibitors of HIV Env-driven cell fusion, dose response, cherry-pick (AID 652057); format: functional, cell-based
[17] = off-target signal loss in HeLa-CEM21 co-culture – HeLa F-luc CTL cells, cherry-picked, counter-screen for HIV-1 Env fusion inhibitor project, dose response (AID 652040); format: functional, cell-based;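 also: potency for signal decrease marking cytotoxic or nonspecific inhibition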
[18] = molecular target: T4, DNA repair and recombination protein RAD54-like (Homo sapiens, UniProt Q92698); assay: inhibitors of human RAD54 branch migration, confirmation, biochemical, fluorescence, cherry-picked samples, dose series (AID 651657); format: functional
T4 sequence (Q92698 whole entry): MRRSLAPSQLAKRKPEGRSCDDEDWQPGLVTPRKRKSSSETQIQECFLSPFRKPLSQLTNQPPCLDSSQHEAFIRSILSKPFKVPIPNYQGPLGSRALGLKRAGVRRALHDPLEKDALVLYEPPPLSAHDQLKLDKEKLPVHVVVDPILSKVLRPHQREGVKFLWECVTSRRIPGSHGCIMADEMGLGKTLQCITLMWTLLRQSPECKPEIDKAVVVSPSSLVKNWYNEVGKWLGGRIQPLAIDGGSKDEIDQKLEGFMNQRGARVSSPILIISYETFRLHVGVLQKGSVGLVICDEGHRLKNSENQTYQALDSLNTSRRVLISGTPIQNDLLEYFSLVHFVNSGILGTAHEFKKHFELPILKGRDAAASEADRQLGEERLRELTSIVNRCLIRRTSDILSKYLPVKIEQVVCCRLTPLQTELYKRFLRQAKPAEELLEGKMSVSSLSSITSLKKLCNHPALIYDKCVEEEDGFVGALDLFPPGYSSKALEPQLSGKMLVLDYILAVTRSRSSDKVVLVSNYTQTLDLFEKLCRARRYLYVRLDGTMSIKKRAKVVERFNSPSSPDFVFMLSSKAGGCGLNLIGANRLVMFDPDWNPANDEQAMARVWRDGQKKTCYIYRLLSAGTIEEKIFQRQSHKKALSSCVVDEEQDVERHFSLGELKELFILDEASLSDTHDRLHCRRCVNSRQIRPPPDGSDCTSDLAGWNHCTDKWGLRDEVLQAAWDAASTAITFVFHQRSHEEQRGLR

[19] = growth suppression of PTEN-null colon cells, dose response, cell-based, HCT116 PTEN knockout (AID 1047); format: functional;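 also: HCT116 colon tumor cells with PTEN knocked out; cells exposed to compound for 60 hours before readout; potency for loss of cell viability measured by luminescence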
[20] = growth suppression of beta-catenin-knockout colon cells, dose response, cell-based, HCT116, human colon tumor (AID 1045); format: functional;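 also: HCT116 colon tumor cells with beta catenin knocked out; cells exposed to compound for 60 hours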
[21] = miR-122 activators in hepatoma reporter cells, dose response, cell-based, Huh7 psiCHECK-miR122, Renilla luciferase, cherry-picked (AID 651956); format: functional;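 also: huh7 hepatoma cells stably carrying a psiCHECK-2 miR-122 sensor plasmid; renilla luciferase signal reporting endogenous miR-122 activity after 48 h compound exposure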

O=C(NCCCCc1ccccc1)Nc1ccc(F)cc1
IC50 [1]: 119 µM (inactive)
IC50 [2]: 83.4 µM (inactive)
IC50 [3]: 44.4 µM (inactive)

O=C(OC(C(=O)c1c[nH]c2ccccc12)c1ccccc1)c1cnccn1 (stereo unspecified)
IC50 [1]: 59.3 µM (inactive)
IC50 [2]: 83.3 µM (inactive)
IC50 [3]: 32.3 µM (inactive)

CCOC(=O)CSc1nnc(CSc2nc(O)c3ccccc3n2)n1-c1ccccc1
IC50 (H9c2): > 79 µM (inactive)

CN(C)S(=O)(=O)c1cccc(NC(=O)c2ccc(-n3cncn3)c([N+](=O)[O-])c2)c1
IC50 [1]: 9.02 µM (active)
IC50 [2]: 83.3 µM (inactive)
IC50 [3]: 4.49 µM (active)

CCCn1c(O)nnc1SCC(=O)c1ccc2c(c1)OCCO2
IC50 (Protein skinhead-1): > 100 µM (inactive)

CCOc1ccccc1N1CC(=O)C(c2nc3ccccc3s2)=C1N
EC50 [4]: 6.86 µM (inconclusive)
EC50 [5]: 10.1 µM (active)
EC50 [6]: 4.59 µM (active)
IC50 [7]: 44.6 µM (inactive)
IC50 (H9c2): > 79 µM (inactive)

COc1ccc(NC(=O)CCc2nc(O)c3ccccc3n2)cc1S(=O)(=O)N1CCCCC1
IC50 (H9c2): > 79 µM (inactive)

Cc1noc(C)c1S(=O)(=O)Nc1ccc2c(c1)CC(=O)N([C@H](C)CO)C[C@@H](C)[C@@H](CN(C)Cc1ccc(Oc3ccccc3)cc1)O2
AC50 [8]: 5.85 µM (active)

COc1ccc(NC(=O)c2ccc3c(c2)OCO3)cc1Cl
IC50 (Protein skinhead-1): > 100 µM (inactive)

C[C@@H]1CN([C@H](C)CO)C(=O)c2cc(NC(=O)NC3CCCCC3)ccc2O[C@H]1CN(C)Cc1ccc(Oc2ccccc2)cc1
AC50 [8]: 6.06 µM (active)

CCn1c(/C=C/N(C)c2ccccc2)[n+](CC)c2cc(Cl)ccc21
EC50 [9]: 0.286 µM (active)
EC50 [10]: 21.5 µM (active)
AC50 [11]: 6.86 µM (active)
AC50 [12]: 35.5 µM (active)
AC50 [13]: 59.3 µM (active)
AC50 [14]: 9.72 µM (active)

Cc1cccc(C)c1N(CC(=O)Nc1cccc(N(C)S(C)(=O)=O)c1)S(C)(=O)=O
IC50 (Protein skinhead-1): > 100 µM (inactive)

CC(C)C[C@H](CO)N(Cc1ccccc1)S(=O)(=O)N(Cc1ccccc1)[C@@H](CO)CC(C)C
AC50 [15]: 3.47 µM (active)
AC50 [16]: 2.8 µM (active)
AC50 [12]: 9.89 µM (active)
AC50 [13]: 3.38 µM (active)
AC50 [17]: 12.4 µM (active)
AC50 [14]: 8.16 µM (active)

COc1ccc(S(=O)(=O)N(C)C[C@H]2Oc3c(NC(=O)Nc4ccc(C(F)(F)F)cc4)cccc3C(=O)N([C@@H](C)CO)C[C@@H]2C)cc1
AC50 [8]: 5.69 µM (active)

CC(CCCN1CCCC1)Nc1ccnc2cc(Cl)ccc12 (stereo unspecified) [Chloroquine-pyrolidinyl]
AC50 [18]: 35.7 µM (active)

O=C(O)c1ccc2c(c1)S(=O)(=O)c1cc(N3CCN(c4cnccn4)CC3)ccc1C2=O
IC50 (H9c2): > 79 µM (inactive)

CN(c1ccccc1)c1nc2ccsc2c(=O)s1
IC50 (Protein skinhead-1): > 100 µM (inactive)

c1coc(CNc2c3c(nc4ccccc24)CCC3)c1
EC50 [9]: 2.41 µM (active)
EC50 [19]: 22.5 µM (active)
EC50 [10]: > 60 µM (not active)
EC50 [20]: 27.1 µM (active)
AC50 [12]: 65 µM (active)
AC50 [14]: 32.9 µM (active)

C[C@@H]1CN([C@@H](C)CO)S(=O)(=O)c2ccc(/C=C/c3ccccc3)cc2O[C@@H]1CN(C)C(=O)c1cccnc1
AC50 [21]: 3.93 µM (active)

COc1ccc(C(=O)Nc2ccc3nc(N4CCN(C)CC4)cc(C)c3c2)c(OC)c1
AC50 [18]: 32.9 µM (active)

C[C@@H]1CN([C@H](C)CO)C(=O)c2cccc(NC(=O)c3ccc(-c4nccs4)cc3)c2O[C@@H]1CN(C)Cc1ccc(C(=O)Nc2ccccc2N)cc1
AC50 [8]: 1.69 µM (active)

Source: ChEMBL document CHEMBL1201862, “PubChem BioAssay data set” (2004)
